Test results: patent US8258114B2, “Modulation of glucose-6-phosphatase translocase expression” (Isis Pharmaceuticals, Inc., priority 2004, dated 2012)

Tests used:
Format in all cases: in vivo, mouse
[1] = Plasma neutrophils and lymphocytes in db/db mice (Table 9)
Experimental: Seven-week old male C57B1/6J-Lepr db/db mice (Jackson Laboratory, Bar Harbor, Me.) were fed a diet with a fat content of about 14% (Formulab Diet 5008) and were subcutaneously injected with ISIS 116847 (SEQ ID NO: 143), ISIS 141923 (SEQ ID NO: 144), or ISIS 148985 (SEQ ID NO: 118), an antisense inhibitor of glucose-6-phosphatase translocase, […] […] Saline-injected animals served as controls. 48 hours after the eighth and final dose was administered, mice were sacrificed and target levels were evaluated in liver. RNA isolation and target mRNA expression level quantitation were performed as described by other examples herein.
Because mutations in the glucose-6-phosphatase translocase gene responsible for human glycogen storage disease type 1b result in neutropenia, plasma neutrophils and lymphocytes were measured for animals in each treatment group.

db/db mice = assay: Fed and fasted plasma glucose in db/db mice (Example 10); settings: 25 mg/kg s.c. twice weekly; for fasted plasma glucose: week 3, overnight fast, saline 343
Experimental: Seven-week old male C57B1/6J-Lepr db/db mice (Jackson Laboratory, Bar Harbor, Me.) were fed a diet with a fat content of about 14% and were subcutaneously injected with one or more of the oligomeric compounds of the invention or a control compound at a dose of 25 mg/kg two times per week. Glucose-6-phosphatase translocase antisense oligonucleotides used were ISIS 148985 (SEQ ID NO: 118) and ISIS 149008 (SEQ ID NO: 141). ISIS 116847 (SEQ ID NO: 143), targeted to mouse PTEN, was used as a positive control. The scrambled control oligonucleotide ISIS 141923 ([…], incorporated herein as SEQ ID NO: 144) served as a negative control along with saline-injected animals. ISIS 141923 and ISIS 116847 are chimeric oligonucleotides (“gapmers”) 20 nucleotides in length, composed of a central “gap” region consisting of 10 2′-deoxynucleotides, which is flanked on both sides (5′ and 3′) by five-nucleotide “wings”. The wings are composed of 2′-O-(2-methoxyethyl) nucleotides, also known as 2′-MOE nucleotides. The internucleoside (backbone) linkages are phosphorothioate throughout the oligonucleotide. All cytidine residues are 5-methylcytidines.
The effects of target inhibition on glucose metabolism were evaluated in the db/db mice treated with the oligomeric compounds of the invention. For seven animals per treatment group, plasma glucose (fed) was measured prior to the start of the treatment (week 0) and during weeks 2 and 4 of treatment. Fasted glucose measurements were made during week three, after animals were fasted overnight (about 15 hours). Data are expressed as the averages per treatment group.

[2] = test system: glucose-6-phosphatase translocase mRNA; assay: Target mRNA reduction in liver of db/db mice, dose-response study
Experimental: Seven-week old male C57B1/6J-Lepr db/db mice (Jackson Laboratory, Bar Harbor, Me.) were fed a diet with a fat content of about 14% (Formulab Diet 5008) and were subcutaneously injected with ISIS 116847 (SEQ ID NO: 143), ISIS 141923 (SEQ ID NO: 144), or ISIS 148985 (SEQ ID NO: 118), an antisense inhibitor of glucose-6-phosphatase translocase, at a dose of 25 mg/kg two times per week for 4 weeks. […] Saline-injected animals served as controls. 48 hours after the eighth and final dose was administered, mice were sacrificed and target levels were evaluated in liver. RNA isolation and target mRNA expression level quantitation were performed as described by other examples herein.
Glucose-6-phosphatase translocase mRNA levels in db/db mouse livers were measured at the end of study using RIBOGREEN™ RNA quantification reagent (Molecular Probes, Inc. Eugene, Oreg.) as taught in previous examples above. Data are expressed as the average of 5 animals per treatment group. […] Target mRNA levels were reduced by approximately 21% by ISIS 148985. […] Therefore, antisense inhibitors of glucose-6-phosphatase translocase reduced target mRNA levels in the liver of db/db mice, and ISIS 149008 did so in a dose-dependent manner.

[3] = test system: glucose-6-phosphatase translocase mRNA; assay: Target mRNA reduction in liver of ob/ob mice; settings: 25 mg/kg s.c. twice weekly, eight doses
Experimental: Seven-week old male C57B1/6J-Lep ob/ob mice (Jackson Laboratory, Bar Harbor, Me.) were fed a diet with a fat content of about 22% and were subcutaneously injected with oligonucleotides at a dose of 25 mg/kg two times per week. A total of eight doses were administered. Glucose-6-phosphatase translocase antisense oligonucleotides used were ISIS 148985 (SEQ ID NO: 118) and ISIS 149008 (SEQ ID NO: 141). […]; incorporated herein as SEQ ID NO: 143), targeted to mouse PTEN, was used as a positive control. Saline-injected animals served as negative controls. […] Glucose-6-phosphatase translocase mRNA levels in ob/ob mouse livers were measured at the end of the study using RIBOGREENTM RNA quantification reagent (Molecular Probes, Inc. Eugene, Oreg.) as taught in previous examples above.

[4] = 25 mg/kg twice weekly 4 weeks (25 mg/mL [sic]), saline 0.9
[5] = 25 mg/kg twice weekly 4 weeks (25 mg/mL [sic]), saline 2.7
[6] = 25 mg/kg twice weekly for 4 weeks

CCTTCCCTGAAGGTTCCTCC (chemistry not given here) [ISIS 141923, scrambled control oligonucleotide, negative control, reference compound]
Neutrophils Plasma [1, 4]: 0.9 cells/nL | Lymphocytes Plasma [1, 5]: 2.6 cells/nL | fed plasma glucose (db/db mice; week 0, saline 270): approximately 272 mg/dL | fed plasma glucose (db/db mice; week 2, saline 534): ~538 mg/dL | fasted plasma glucose (db/db mice): approximately 287 mg/dL | fed plasma glucose (db/db mice; week 4, saline 627): ~563 mg/dL | Glucose-6-phosphatase translocase mRNA levels in liver, reduction compared to saline [2, 6]: approximately 1%

CTGCTAGCCTCTGGATTTGA (chemistry not given here) [ISIS 116847, positive control oligonucleotide targeted to mouse PTEN, reference compound]
Glucose-6-phosphatase translocase mRNA levels in liver, reduction compared to saline [3]: approximately 36% | Neutrophils Plasma [1, 4]: 0.8 cells/nL | Lymphocytes Plasma [1, 5]: 3.1 cells/nL | fed plasma glucose (db/db mice; week 0, saline 270): approximately 267 mg/dL | fed plasma glucose (db/db mice; week 2, saline 534): ~360 mg/dL | fasted plasma glucose (db/db mice): approximately 241 mg/dL | fed plasma glucose (db/db mice; week 4, saline 627): ~334 mg/dL | Glucose-6-phosphatase translocase mRNA levels in liver, reduction compared to saline [2, 6]: approximately 27%

GCTCCATAGCGAGGACTCGA (chemistry not given here) [ISIS 148985]
Glucose-6-phosphatase translocase mRNA levels in liver, reduction compared to saline [3]: approximately 52% | Neutrophils Plasma [1, 4]: 1.0 cells/nL | Lymphocytes Plasma [1, 5]: 3.3 cells/nL | fed plasma glucose (db/db mice; week 0, saline 270): approximately 267 mg/dL | fed plasma glucose (db/db mice; week 2, saline 534): ~512 mg/dL | fasted plasma glucose (db/db mice): approximately 288 mg/dL | fed plasma glucose (db/db mice; week 4, saline 627): ~552 mg/dL | Glucose-6-phosphatase translocase mRNA levels in liver, reduction compared to saline [2, 6]: approximately 21%

TATACAAGTCGGTTTGCCCT (chemistry not given here) [ISIS 149008]
Glucose-6-phosphatase translocase mRNA levels in liver, reduction compared to saline [3]: approximately 87% | Neutrophils Plasma [1, 4]: 1.0 cells/nL | Lymphocytes Plasma [1, 5]: 3.7 cells/nL | Lymphocytes Plasma ([1]; dose 12.5 mg/mL [sic]): 3.2 cells/nL | Neutrophils Plasma ([1]; dose 12.5 mg/mL [sic]): 0.9 cells/nL | Lymphocytes Plasma ([1]; dose printed 6 mg/mL): 2.8 cells/nL | Neutrophils Plasma ([1]; dose printed 6 mg/mL): 1.1 cells/nL | fed plasma glucose (db/db mice; week 0, saline 270): approximately 272 mg/dL | fed plasma glucose (db/db mice; week 2, saline 534): ~390 mg/dL | fasted plasma glucose (db/db mice): approximately 241 mg/dL | fed plasma glucose (db/db mice; week 4, saline 627): ~347 mg/dL | Glucose-6-phosphatase translocase mRNA levels in liver, reduction compared to saline ([2]; 6.25 mg/kg twice weekly for 4 weeks): approximately 45% | Glucose-6-phosphatase translocase mRNA levels in liver, reduction compared to saline ([2]; 12.5 mg/kg twice weekly for 4 weeks): approximately 69% | Glucose-6-phosphatase translocase mRNA levels in liver, reduction compared to saline [2, 6]: approximately 81%
